Laboratory results published in paper PMC12040169 (PLOS Biology, 2025).

Test: in vitro
Details: human, hela cells, % viability

SMILES	viability at 28.5 h, 10 µM [%]
COc1ccc(-n2c(SCC(=O)Nc3cccc(C(C)=O)c3)nc3sc(C)c(C)c3c2=O)cc1 [CBK091806]	97.6
Clc1ccc(-n2ncc(-c3cccnc3)n2)cc1Cl [CBK112814]	101
CC(C)C(=O)N1CC2(CCN(CCc3cccc4ccccc34)CC2)c2ccccc21 [CBK136978]	101
c1ccc(CN2CCN(Cc3ccccc3)C2c2cccnc2)cc1 [CBK260885]	93.2
COc1ccc(-c2nc(-c3ccncc3)ncc2C(=O)NCc2ccncc2)cc1 [CBK291112]	96.4
O=C(O)C(c1c[nH]c2cc(CO)ccc12)N1CCCN(c2ccc(C(F)(F)F)cn2)CC1 (stereo not drawn) [CBK286845]	85.3
COc1ccc(N2C(=O)c3ccc(C(=O)OCC(=O)c4ccc(-c5ccccc5)cc4)cc3C2=O)cc1 [CBK263532]	95.8
Cc1cccc(C2(Cn3cncc3-c3cnn(C)c3)CCOCC2)c1 [CBK281765]	79
CCCCOc1ccc(NC(=O)NC(=O)C2CCN(CCc3ccc(Br)cc3)CC2)cc1 [CBK035096]	91.5
O=C(Nc1snnc1-c1ccc(Cl)cc1)c1ccco1 [CBK153242]	102
O=C(OCc1csc2ccc(Cl)cc12)N1CCOCC1 [CBK200164]	94.7
CCN(CC)C(=O)COc1ccc(NC(=O)Nc2cc(C)on2)cc1Cl [CBK305734]	104
CN(C)CCN(C)c1ccc(-c2ccc(F)c(Cl)c2)cn1 [CBK036979]	96.8
O=C(CSc1nnc2c(n1)[nH]c1ccccc12)Nc1ccccc1[N+](=O)[O-] [CBK263195]	100
Fc1cc(Br)c(CNCc2ccno2)c(N2CCCCC2)c1F [CBK304723]	86.8
Clc1ccc(COc2cccc3cccnc23)cn1 [CBK002718]	93.2
O=C(Cc1c[nH]cn1)N1CCN(C(=O)c2ccco2)CC1 [CBK144448]	91.9
CCn1cnnc1C1CCN(C(=O)c2ccc(C)c(Cl)c2)CC1 [CBK303997]	94.9
CC1(C)CC(=O)C=C(C(=O)Nc2c(F)cc(F)cc2OC2CCNCC2)O1 [CBK050332T]	110
Cn1ncnc1CNc1ccc(S(=O)(=O)N2CCCCCC2)cc1 [CBK305278]	90.1
O=C(CSc1cc(Cl)ccc1Cl)Nc1cccc(Cl)c1 [CBK263712]	113
CCOC(=O)Cc1nc2cc([N+](=O)[O-])ccc2oc1=O [CBK015603]	98

SMILES	viability at 28.5 h, 10 µM [%]
COc1ccc(OC)c(N(CC(=O)N2CCN(C)CC2)S(=O)(=O)c2ccccc2)c1 [CBK264131]	98.8
c1ccc2nc(N3CCCC3)c(OCc3ccsc3)nc2c1 [CBK115819]	90.2
O=S(=O)(NCCc1c[nH]c2ccccc12)c1cccc2nsnc12 [CBK057456]	83.4
CC(C)(C)OC(=O)N1CCC(C2OCc3cc(-c4ccc(C(=O)N5CCOCC5)o4)ccc3O2)CC1 (stereo not drawn) [CBK173615]	85.6
c1ccc(OCCOc2cccnc2N2CCNCC2)cc1 [CBK200000C]	90.1
Cc1ccc(S(=O)(=O)CC(=O)N2CCC3(CCN(C(=O)Cc4c[nH]c5ccccc45)C3)C2)cc1 (stereo not drawn) [CBK131443]	84
CO/N=C(/C(=O)O)c1cn2cc(Br)ccc2n1 [CBK260925G]	87.2
COc1cc2c(cc1OC)CN(C(=O)c1ccccn1)CC2 [CBK115864]	98.5
O=C(OCC=C=CSc1ccc([N+](=O)[O-])cc1)c1ccc(F)cc1 [CBK265650]	117
Cn1cc(CCNC(=O)N(Cc2ccccn2)CC2CCCO2)cn1 (stereo not drawn) [CBK306973]	99.2
COc1ccccc1/C=C/C1=NN(c2ccc(F)cc2)C(c2ccccc2OC)C1 (stereo not drawn) [CBK262303]	81.1
N#C/C(=C\c1ccc(Oc2ccc(C(F)(F)F)cc2[N+](=O)[O-])cc1)c1nc2ccccc2[nH]1 [CBK263878]	92.4
COc1ccc(Cn2c(=O)n(S(=O)(=O)c3ccc(-c4cc(C(F)(F)F)n(C)n4)s3)c3ccccc32)cc1 [CBK106552]	97.7
O=C(O)c1ccc(Cl)c(S(=O)(=O)Nc2ccc(I)cc2)c1 [CBK296132]	83.2
O=C(Nc1ccc(=O)n2c1[C@@H]1C[C@@H](CN(C(=O)Nc3ccc(F)cc3)C1)C2)c1ccccc1 [CBK288715]	89.9
CN1CCN(C(=O)CCCN2C(=O)c3cccc4cccc(c34)C2=O)CC1 [CBK262383]	96.9
CN(Cc1ccccc1)C(=O)c1cc(=O)[nH]c2ccccc12 [CBK287971]	92.8
N#Cc1cccc(C(=O)N2CCCC3(CCN(Cc4ccccc4)C3)C2)c1 (stereo not drawn) [CBK136893]	92
CCN1C(=O)C2(CC(=O)N(CCCCC(C)C)C2=O)c2cc(C)ccc21 (stereo not drawn) [CBK075173]	103
C=CCSC1=N/C(=C\c2ccc(C(=O)O)cc2)C(=O)S1 [CBK265057]	95.7
CN1CCC(Cc2nc(-c3cccc(OC(F)F)c3)n(CCO)n2)CC1 [CBK307294]	90.2
O=C(CC1Nc2ccccc2NC1=O)Nc1cccc(C(=O)O)c1 (stereo not drawn) [CBK263155]	102

SMILES	viability at 28.5 h, 10 µM [%]
CCN(CC)CCN1CCN(c2cc(-c3cccnc3)ncn2)CC1 [CBK036957]	94.8
COc1ccc(CNC(=O)c2ccccc2NS(=O)(=O)c2cc(Cl)ccc2Cl)cc1 [CBK113964]	101
CC1CCN(C(C)Cn2cncc2-c2cnn(C)c2)CC1 (stereo not drawn) [CBK281703]	95.5
CSc1ncc(CNC(=O)C2CCOc3ccccc3C2)n1C (stereo not drawn) [CBK307611]	82.5
CCOc1cc(/C=N/NC(=O)c2cncc(Br)c2)c(Br)c(Br)c1O [CBK261386]	86.3
COc1ccc(S(=O)(=O)NCCO)cc1-c1nnc2c3ccccc3c(C)nn12 [CBK266933]	91.9
O=C(NCc1cccnc1)c1ccccc1-n1cccc1 [CBK149602]	92.3
Cc1ccc2nc(-c3ccc(-c4ccc(C(C)C)cc4)o3)cc(C(=O)O)c2c1 [CBK300083]	96.7
FC(F)(F)c1cc(-c2cn3ccnc3c(NCCc3cccnc3)n2)cc(C(F)(F)F)c1 [CBK066146]	98.1
Cc1nn(C)c(C)c1CC(=O)Nc1nc(C(C)(C)C)cs1 [CBK250992]	105
NS(=O)(=O)c1ccc(CCNC(=O)COc2ccc(Cl)cc2Cl)cc1 [CBK265694]	90.2
CC(=O)N(C)c1nc(-c2cccc(N(C)C)c2)ccc1C(=O)NCc1cccnc1 [CBK076639]	101
CSCCOc1nccnc1N1CCCC1 [CBK115757]	120
CCC(=O)N1CCC2(CCCC[C@H]3CN(C(C)=O)CC[C@H]3NC(=O)CNC2=O)CC1 [CBK292147]	96.6
COCCn1nnnc1C(c1cc2cc(C)cc(C)c2[nH]c1=O)N1CCOCC1 (stereo not drawn) [CBK068815]	95.3
CCNC(=O)Nc1ncc(-c2ccc3c(c2)OCCCO3)c2cccnc12 [CBK070634]	104
CC(=O)N1CCOc2ccccc21 [CBK050388]	92.7
COCCN1CCC2(C/C=C/C[C@H]3COCC[C@H]3NC(=O)CNC2=O)CC1 [CBK292145]	116
N#Cc1ccc(-c2csc(NC(=O)c3ccc(Cl)s3)n2)cc1 [CBK287321]	100
CC(=O)c1cccc(NC(=O)N(Cc2ccco2)CC2CCCO2)c1 (stereo not drawn) [CBK304467]	104
CN(C)C(c1ccccc1)c1nnnn1C1CCCCC1 (stereo not drawn) [CBK028032]	105
CC(=O)c1ccccc1NC(=O)CSCC(=O)O [CBK057752]	92.2

SMILES	viability at 28.5 h, 10 µM [%]
COC(=O)c1ccc(N2CCN(Cc3cnoc3C)C(C)C2)cc1 (stereo not drawn) [CBK306442]	109
Cc1ccc(Cl)cc1NC(=O)c1cc(NC(=O)C2CC=CCC2C(=O)O)ccc1N1CCOCC1 (stereo not drawn) [CBK268479]	99.1
CC(=O)NCC(=O)N1CC[C@@H]2NC(=O)CNC(=O)C3(CCCC[C@H]2C1)CCN(C(C)=O)CC3 [CBK292014]	91.8
Cc1onc(-c2ccccc2)c1C(=O)N1CCN(CCN2CCCC2)CC1 [CBK158558]	98.6
CCC(c1ccc(F)cc1F)N1CCN(Cc2nc(C)no2)CC1 (stereo not drawn) [CBK304032]	103
Cn1c(SCC(=O)Nc2ccccc2[N+](=O)[O-])nc2ccccc2c1=O [CBK265096]	106
Cc1noc(C)c1C(=O)Nc1sc2c(c1C(=O)NCc1ccco1)CCCCCC2 [CBK268112]	99.3
O=S(=O)(Cc1ccc(Br)cc1)c1cc2c(N3CCNCC3)nccc2s1 [CBK045688C]	87.4
CC(=O)c1ccc(NC(=O)N2Cc3nc[nH]c3C[C@H]2c2nc(-c3ccc(F)cc3)no2)cc1 [CBK288971]	83.6
Cc1cc(C(=O)N2CCC(Oc3nccn(Cc4ccc(S(C)(=O)=O)cc4)c3=O)CC2)ccc1Cl [CBK161883]	92.6
Cc1c(C(C)NCCc2nnc[nH]2)cnn1-c1ccc(C#N)cc1 (stereo not drawn) [CBK304063]	98.1
c1cc(CSc2nnc(-c3ccncc3)o2)ccn1 [CBK270235]	92.3
Cc1nccn1CCNC(=O)CCc1nc2ccccc2n1C [CBK281978]	95.3
NS(=O)(=O)c1ccc(CCNC(=O)c2ccc(-c3ccccc3)nc2NCCc2ccccn2)cc1 [CBK076616]	111
C=CCNC(=O)CCc1nc(-c2cccc(OC)c2)no1 [CBK268981]	99.2
CC(C)c1nccn1-c1ccc(NC(=O)CCCn2ccnc2)cc1 [CBK281380]	93
CC(C)CCc1csc(C2CN3CCCC3CO2)n1 (stereo not drawn) [CBK304266]	89.9
CCOc1ccc(NC(=O)COc2ccccc2/C=C/C(=O)O)cc1 [CBK286935]	96.6
NS(=O)(=O)c1ccc(NC(=O)c2ccc(NC(=O)C3COc4ccccc4O3)cc2)cc1 (stereo not drawn) [CBK266573]	101
O=C(O)c1ccc2[nH]cc(CN3CCOCC3)c2c1 [CBK287081]	89.9
NC(=O)c1ccc(NC(=O)N2CCCCC2CO)cc1 (stereo not drawn) [CBK156185]	83
